Activity calls are given as the source filed them.
Legend:
[1] = Luminescence-based dose response cell-based high throughput screening assay for cytotoxic compounds using the IEC-6 intestinal epithelial cell line. [Related pubchem assays: 1858 (Summary AID.), 1825 (Counterscreen.), 1907 (Confirmation screen.)]; assay type: functional
[2] = Trypanosoma cruzi growth suppression in host cells – NIH3T3 host cells, beta-gal luminescence, confirmation (AID 2044); assay type: functional, cell-based;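 further: intracellular parasites grown in NIH/3T3 mouse fibroblasts as host cells; luminescent beta-galactosidase reporter signal from transgenic T. cruzi replicating inside host cells; inhibitors lower the luminescence signal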
[3] = biological target: Microphthalmia-associated transcription factor (Homo sapiens, UniProt O75030); assay: reducers of TRPM1 reporter luminescence, concentration series – cell-based, SK-MEL-5, cherry-picked, set 3, MITF inhibitor project, dose response (AID 493073); assay type: functional;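 further: SK-MEL-5 melanoma cells with luciferase driven by the MITF target TRPM1 promoter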
[4] = NIH3T3 cell viability loss – ATP luminescence, mouse fibroblasts, counter-screen, dose response (AID 2010); assay type: functional, cell-based;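 further: cells exposed to compound for about 90 hours before reading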
[5] = biological target: T1, Apoptotic protease-activating factor 1 (Homo sapiens, UniProt O14727); assay type: functional
T1 sequence (O14727 whole entry): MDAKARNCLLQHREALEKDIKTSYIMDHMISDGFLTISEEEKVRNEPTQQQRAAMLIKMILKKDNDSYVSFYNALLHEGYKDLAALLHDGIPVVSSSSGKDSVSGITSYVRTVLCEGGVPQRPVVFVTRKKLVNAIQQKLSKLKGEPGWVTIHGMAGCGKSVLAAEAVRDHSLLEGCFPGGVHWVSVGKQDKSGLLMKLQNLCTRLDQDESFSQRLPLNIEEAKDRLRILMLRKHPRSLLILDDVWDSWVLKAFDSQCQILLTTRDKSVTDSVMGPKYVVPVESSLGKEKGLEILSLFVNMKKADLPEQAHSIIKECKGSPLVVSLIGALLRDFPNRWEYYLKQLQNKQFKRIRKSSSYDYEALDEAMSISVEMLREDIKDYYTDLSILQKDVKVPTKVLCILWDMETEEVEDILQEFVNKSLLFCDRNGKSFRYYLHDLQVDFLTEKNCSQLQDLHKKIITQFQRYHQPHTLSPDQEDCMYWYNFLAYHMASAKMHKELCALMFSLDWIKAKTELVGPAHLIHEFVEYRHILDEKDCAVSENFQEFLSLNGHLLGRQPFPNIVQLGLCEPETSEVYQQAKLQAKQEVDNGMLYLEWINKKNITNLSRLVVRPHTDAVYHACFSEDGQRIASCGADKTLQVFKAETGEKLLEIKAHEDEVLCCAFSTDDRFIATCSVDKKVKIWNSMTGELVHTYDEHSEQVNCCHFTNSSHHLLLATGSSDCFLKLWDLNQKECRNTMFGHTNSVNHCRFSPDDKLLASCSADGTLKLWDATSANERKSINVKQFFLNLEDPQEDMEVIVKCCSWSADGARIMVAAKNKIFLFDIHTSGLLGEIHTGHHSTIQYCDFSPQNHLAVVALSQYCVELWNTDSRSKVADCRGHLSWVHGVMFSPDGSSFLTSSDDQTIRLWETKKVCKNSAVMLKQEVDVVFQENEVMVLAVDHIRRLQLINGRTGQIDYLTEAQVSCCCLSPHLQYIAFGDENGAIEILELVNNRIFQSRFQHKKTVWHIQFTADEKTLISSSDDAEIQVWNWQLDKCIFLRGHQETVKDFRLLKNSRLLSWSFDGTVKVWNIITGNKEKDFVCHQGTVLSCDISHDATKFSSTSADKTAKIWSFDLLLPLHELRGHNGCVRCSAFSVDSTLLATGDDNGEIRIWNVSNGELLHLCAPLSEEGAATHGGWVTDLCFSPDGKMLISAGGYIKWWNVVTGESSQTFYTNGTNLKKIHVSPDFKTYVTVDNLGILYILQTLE

[6] = biological target: T2, Calpain-2 catalytic subunit (Sus scrofa, UniProt P43367); assay: m-calpain protease blockers, concentration series – biochemical, fluorogenic peptide substrate, dose response (AID 1420); assay type: functional
T2 sequence (P43367 whole entry): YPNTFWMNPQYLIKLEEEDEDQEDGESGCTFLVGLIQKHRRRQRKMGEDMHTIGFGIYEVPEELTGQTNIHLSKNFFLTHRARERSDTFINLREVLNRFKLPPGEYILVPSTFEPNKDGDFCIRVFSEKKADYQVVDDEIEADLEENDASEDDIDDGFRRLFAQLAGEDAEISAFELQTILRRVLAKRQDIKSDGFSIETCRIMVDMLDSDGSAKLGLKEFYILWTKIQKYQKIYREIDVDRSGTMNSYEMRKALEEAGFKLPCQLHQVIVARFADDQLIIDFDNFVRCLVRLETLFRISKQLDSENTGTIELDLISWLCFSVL

[7] = biological target: T3, Histone-lysine N-methyltransferase NSD2 (Homo sapiens, UniProt O96028); assay type: biochemical
T3 sequence (O96028 whole entry): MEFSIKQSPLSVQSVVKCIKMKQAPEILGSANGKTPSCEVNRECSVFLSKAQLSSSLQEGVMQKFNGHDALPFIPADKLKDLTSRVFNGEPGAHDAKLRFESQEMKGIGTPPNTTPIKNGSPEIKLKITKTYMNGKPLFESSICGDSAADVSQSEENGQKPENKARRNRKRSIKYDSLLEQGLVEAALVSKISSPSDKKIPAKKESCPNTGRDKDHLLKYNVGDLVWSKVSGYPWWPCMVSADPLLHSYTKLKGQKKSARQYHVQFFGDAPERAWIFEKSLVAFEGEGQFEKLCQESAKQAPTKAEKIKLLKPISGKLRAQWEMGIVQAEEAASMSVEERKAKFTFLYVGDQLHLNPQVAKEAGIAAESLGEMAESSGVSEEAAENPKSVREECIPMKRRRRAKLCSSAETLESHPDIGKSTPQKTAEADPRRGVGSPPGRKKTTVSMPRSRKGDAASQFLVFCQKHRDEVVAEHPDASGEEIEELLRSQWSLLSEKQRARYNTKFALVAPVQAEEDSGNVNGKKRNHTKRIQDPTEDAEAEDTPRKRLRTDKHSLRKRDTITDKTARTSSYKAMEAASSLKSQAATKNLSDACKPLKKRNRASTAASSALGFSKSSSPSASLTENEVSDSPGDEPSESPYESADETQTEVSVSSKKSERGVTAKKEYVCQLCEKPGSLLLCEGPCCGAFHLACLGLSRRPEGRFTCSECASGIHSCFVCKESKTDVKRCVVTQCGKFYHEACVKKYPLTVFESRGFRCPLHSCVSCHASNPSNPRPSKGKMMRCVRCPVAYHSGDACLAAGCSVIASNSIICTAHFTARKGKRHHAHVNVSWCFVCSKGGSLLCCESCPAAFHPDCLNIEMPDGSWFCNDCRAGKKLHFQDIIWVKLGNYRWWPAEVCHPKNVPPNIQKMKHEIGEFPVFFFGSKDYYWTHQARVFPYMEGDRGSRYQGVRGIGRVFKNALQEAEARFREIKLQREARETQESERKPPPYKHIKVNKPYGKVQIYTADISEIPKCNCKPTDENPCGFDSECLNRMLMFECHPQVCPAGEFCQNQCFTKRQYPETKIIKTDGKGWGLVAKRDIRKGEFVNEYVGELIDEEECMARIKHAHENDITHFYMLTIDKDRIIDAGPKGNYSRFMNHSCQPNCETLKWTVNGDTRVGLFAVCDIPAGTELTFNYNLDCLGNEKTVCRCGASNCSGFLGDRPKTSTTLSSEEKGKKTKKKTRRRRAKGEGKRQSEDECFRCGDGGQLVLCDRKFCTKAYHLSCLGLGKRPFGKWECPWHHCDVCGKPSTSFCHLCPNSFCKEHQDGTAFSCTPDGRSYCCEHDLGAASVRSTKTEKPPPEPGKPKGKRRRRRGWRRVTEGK

A-375 = assay: proliferation inhibition in MITF-low A375 cells – cell-based, cherry-pick samples, set 2, counter-screen for MITF modulator project, dose response (AID 540335); assay type: functional; settings: Homo sapiens
INS1 = assay: INS-1E survival protection against cytokine death – cell-based, luminescence, retest, dose response (AID 449756); assay type: functional; settings: Rattus norvegicus;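 further: cell death triggered by IL-1 beta plus TNF-alpha plus IFN-gamma mixture; protective hits raise ATP signal compared with cytokine alone wells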
[8] = biological target: Type-1 angiotensin II receptor (Homo sapiens, UniProt P30556); assay: antagonism of angiotensin II type 1 receptor – cell-based, uHTS hits, selectivity assay for APJ receptor antagonist project, dose response (AID 463214); assay type: functional;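 further: antagonist potency against angiotensin II stimulated AT1 response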
Beta-galactosidase = Beta-galactosidase (Escherichia coli, UniProt Q8VNN2); assay: PubChem AID 485352; assay type: functional
Beta-galactosidase, sequence (Q8VNN2 whole entry, the tested form may be a part): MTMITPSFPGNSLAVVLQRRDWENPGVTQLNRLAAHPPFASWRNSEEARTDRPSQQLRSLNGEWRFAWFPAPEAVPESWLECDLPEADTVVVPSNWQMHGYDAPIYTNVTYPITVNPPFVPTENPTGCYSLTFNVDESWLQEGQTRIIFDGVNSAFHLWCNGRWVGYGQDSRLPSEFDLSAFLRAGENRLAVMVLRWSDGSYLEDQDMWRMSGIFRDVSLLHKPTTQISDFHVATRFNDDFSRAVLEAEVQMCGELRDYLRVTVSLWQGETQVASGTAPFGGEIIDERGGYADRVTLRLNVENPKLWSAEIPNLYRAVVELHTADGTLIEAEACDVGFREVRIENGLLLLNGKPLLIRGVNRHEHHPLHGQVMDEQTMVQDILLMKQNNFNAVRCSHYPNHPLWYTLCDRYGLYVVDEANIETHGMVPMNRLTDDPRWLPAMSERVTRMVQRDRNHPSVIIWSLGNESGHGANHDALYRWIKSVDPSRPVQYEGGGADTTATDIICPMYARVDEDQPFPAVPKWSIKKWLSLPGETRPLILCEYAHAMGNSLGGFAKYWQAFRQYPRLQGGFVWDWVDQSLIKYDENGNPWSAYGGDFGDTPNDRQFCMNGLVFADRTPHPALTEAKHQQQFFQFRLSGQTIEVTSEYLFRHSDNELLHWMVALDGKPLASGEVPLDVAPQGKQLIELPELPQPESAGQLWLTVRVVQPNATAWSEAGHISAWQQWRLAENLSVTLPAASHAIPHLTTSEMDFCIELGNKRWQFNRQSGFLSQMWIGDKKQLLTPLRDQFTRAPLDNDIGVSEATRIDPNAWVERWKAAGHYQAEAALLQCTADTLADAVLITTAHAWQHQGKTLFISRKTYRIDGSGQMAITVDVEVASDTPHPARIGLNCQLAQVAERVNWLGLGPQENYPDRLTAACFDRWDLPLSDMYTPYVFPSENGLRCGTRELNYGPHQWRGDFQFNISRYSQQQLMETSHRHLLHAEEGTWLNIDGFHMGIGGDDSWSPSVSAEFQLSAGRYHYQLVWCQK

[9] = CCR5-tropic HIV-1 fusion blockers – cell-based, CCR5-tropic Env, dose response (AID 2279); assay type: functional
[10] = viability loss in HEK293 cells – cell-based, plate reader, cherry-picked samples, cytotoxicity control, dose response (AID 743446); assay type: functional
[11] = blockade of melanocortin 4 receptor signaling – cell-based, plate reader, cherry pick, counter-screen for LGR2 antagonist project, dose response (AID 743444); assay type: functional;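 further: transfected HEK 293 cells stimulated with alpha-MSH peptide; potency of inhibitors of the alpha-MSH evoked signal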
[12] = Counterscreen for AddAB inhibitors: absorbance-based bacterial cell-based high throughput dose response assay for inhibitors of bacterial viability. [Related pubchem assays (depositor defined):AID435030, AID449728, AID449731, AID488942, AID488955, AID488956]; assay type: functional
[13] = biological target: T4, Heat shock factor protein 1 (Mus musculus, UniProt P38532); assay: decrease of HSF1-responsive luciferase luminescence – cell-based, NIH3T3, dose retest, confirmation (AID 2382); assay type: functional;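 further: NIH3T3 fibroblasts with HSF1-driven luciferase reporter stressed by proteasome inhibitor MG132; luminescence from HSF1-driven luciferase expression after 8 hours of MG132 stress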
T4 sequence (P38532 whole entry): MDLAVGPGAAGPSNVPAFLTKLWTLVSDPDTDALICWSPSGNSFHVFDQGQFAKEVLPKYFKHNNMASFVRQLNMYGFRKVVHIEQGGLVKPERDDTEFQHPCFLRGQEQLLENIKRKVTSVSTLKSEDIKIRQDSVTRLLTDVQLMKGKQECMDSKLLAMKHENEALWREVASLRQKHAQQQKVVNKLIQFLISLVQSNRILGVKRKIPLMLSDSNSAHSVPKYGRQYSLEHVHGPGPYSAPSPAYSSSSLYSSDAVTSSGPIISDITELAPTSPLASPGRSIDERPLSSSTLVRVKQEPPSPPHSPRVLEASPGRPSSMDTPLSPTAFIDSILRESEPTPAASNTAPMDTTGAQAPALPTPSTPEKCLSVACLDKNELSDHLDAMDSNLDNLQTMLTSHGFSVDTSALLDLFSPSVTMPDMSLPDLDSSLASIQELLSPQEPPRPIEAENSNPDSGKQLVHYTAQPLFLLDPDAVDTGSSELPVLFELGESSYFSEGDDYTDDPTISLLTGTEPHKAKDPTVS

[14] = general cell-killing toxicity readout – plate reader, dry powder samples, cytotoxicity control for PAX8 inhibitor project, dose response (AID 743021); assay type: functional, cell-based
[15] = HEK-293T viability loss after treatment – luminescence, T-cell screen hits, cytotoxicity control for TCR NF-kB inhibitor project, dose response (AID 489026); assay type: functional, cell-based;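 further: cells exposed to compound about 14 hours before the viability readout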
Vero = assay: cells; assay type: functional; settings: Chlorocebus sabaeus
[16] = biological target: Luciferin 4-monooxygenase (Photuris pensylvanica, UniProt Q27757); assay: inhibition of Cell Titer Glo luciferase signal – biochemical, luminescence, cherry-picks, counter-screen for HSF-1 reporter inhibitor project, dose response (AID 588847)
Luciferin 4-monooxygenase, sequence (Q27757 whole entry): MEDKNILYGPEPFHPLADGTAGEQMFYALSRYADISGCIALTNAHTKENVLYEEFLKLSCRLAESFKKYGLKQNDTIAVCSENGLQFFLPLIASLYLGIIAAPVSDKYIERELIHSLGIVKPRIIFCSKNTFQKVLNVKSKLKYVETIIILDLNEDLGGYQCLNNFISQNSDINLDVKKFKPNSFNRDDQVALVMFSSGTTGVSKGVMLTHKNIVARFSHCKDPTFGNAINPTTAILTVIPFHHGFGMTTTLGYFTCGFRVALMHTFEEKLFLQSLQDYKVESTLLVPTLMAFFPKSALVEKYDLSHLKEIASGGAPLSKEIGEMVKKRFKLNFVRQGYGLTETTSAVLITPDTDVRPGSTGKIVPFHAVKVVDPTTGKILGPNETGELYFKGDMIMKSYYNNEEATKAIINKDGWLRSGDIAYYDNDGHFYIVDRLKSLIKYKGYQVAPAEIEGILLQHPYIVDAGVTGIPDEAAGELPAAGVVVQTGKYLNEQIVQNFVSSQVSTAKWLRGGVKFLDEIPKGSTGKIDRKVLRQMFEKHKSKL

Exodeoxyribonuclease V = Exodeoxyribonuclease V (Escherichia coli (strain K12), UniProt P04993+P07648+P08394); assay: RecBCD inhibition via phage-restricted bacterial growth – absorbance, V66 E. coli, mutant T4 phage, counter-screen for AddAB inhibitor project, dose response (AID 492957); assay type: functional, cell-based, Escherichia coli str. K-12 substr. MG1655
Exodeoxyribonuclease V, sequence (P04993 whole entry): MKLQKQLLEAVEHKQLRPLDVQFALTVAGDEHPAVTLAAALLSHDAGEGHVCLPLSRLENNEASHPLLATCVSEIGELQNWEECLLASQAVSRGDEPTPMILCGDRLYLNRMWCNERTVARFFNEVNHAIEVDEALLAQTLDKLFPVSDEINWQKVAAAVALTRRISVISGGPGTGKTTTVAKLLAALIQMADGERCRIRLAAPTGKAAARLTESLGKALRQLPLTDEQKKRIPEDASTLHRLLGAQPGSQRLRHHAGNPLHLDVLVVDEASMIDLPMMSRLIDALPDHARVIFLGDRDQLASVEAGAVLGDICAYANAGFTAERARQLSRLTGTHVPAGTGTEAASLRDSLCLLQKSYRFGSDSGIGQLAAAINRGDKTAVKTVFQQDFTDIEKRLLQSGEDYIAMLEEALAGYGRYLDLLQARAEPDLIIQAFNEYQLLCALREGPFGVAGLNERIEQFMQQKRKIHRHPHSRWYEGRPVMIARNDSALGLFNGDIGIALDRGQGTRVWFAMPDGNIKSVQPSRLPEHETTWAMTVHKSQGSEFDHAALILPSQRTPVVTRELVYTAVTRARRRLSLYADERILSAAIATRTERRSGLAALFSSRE
Exodeoxyribonuclease V, sequence (P07648 whole entry): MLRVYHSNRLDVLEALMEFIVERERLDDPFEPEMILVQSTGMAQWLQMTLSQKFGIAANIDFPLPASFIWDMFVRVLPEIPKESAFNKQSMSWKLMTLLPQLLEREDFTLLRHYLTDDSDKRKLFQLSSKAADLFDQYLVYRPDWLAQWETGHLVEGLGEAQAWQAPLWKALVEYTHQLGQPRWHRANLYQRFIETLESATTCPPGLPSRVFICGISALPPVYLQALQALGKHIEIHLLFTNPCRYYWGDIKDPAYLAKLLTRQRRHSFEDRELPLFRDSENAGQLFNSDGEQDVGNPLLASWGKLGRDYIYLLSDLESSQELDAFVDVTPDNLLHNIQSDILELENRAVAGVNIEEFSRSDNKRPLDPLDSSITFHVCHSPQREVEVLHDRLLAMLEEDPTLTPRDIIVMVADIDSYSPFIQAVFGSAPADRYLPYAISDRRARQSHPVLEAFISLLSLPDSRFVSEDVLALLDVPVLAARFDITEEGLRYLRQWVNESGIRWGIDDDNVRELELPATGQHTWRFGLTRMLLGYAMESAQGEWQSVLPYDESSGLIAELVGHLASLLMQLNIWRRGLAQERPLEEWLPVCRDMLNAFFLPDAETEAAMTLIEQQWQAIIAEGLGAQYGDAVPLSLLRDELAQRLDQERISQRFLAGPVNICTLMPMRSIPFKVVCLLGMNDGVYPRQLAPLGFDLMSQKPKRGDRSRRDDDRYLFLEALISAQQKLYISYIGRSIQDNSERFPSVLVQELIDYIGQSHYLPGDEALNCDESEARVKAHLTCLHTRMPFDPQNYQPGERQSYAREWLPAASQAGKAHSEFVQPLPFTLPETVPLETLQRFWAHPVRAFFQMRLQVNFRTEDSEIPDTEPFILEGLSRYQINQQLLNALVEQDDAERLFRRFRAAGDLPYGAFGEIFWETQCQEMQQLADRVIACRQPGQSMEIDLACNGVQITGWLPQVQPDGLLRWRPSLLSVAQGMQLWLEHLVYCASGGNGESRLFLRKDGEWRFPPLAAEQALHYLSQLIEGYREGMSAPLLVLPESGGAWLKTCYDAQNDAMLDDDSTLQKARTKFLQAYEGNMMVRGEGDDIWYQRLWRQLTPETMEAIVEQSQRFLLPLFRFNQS
Exodeoxyribonuclease V, sequence (P08394 whole entry): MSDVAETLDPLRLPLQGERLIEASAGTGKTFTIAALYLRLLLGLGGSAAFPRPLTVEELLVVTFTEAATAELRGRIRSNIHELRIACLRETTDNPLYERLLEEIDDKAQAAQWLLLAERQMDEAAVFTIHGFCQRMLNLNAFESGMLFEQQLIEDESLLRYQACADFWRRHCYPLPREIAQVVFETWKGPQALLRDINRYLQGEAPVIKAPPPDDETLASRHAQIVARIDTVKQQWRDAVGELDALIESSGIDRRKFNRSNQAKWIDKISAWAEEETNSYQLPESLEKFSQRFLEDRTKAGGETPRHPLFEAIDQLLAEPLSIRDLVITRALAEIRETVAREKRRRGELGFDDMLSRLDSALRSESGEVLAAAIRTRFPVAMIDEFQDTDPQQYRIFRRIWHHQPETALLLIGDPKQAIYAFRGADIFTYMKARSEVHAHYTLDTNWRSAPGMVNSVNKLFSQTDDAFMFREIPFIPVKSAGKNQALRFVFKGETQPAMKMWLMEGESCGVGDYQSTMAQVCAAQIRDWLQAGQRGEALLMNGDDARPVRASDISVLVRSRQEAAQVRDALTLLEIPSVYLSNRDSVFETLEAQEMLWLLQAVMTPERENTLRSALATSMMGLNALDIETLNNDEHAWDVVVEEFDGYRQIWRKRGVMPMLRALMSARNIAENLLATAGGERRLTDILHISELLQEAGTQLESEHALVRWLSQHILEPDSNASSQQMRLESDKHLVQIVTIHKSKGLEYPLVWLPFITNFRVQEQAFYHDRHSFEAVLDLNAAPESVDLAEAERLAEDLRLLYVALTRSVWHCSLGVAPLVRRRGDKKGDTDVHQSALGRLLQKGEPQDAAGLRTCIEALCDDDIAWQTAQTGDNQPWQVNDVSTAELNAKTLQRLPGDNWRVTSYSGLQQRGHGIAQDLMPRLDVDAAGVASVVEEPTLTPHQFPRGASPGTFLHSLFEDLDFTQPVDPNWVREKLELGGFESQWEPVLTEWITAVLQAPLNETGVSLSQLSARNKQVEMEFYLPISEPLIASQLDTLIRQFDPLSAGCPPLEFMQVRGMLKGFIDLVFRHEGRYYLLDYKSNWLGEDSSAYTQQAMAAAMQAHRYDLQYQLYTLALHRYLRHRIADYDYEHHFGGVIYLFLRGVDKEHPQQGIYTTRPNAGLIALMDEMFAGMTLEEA

Paired box protein Pax-8 = Paired box protein Pax-8 (Homo sapiens, UniProt Q06710); assay: PAX8 transcriptional activity inhibition in RMG-I – RMG-I cells, luciferase, cherry-pick, dose response (AID 687027); assay type: functional, cell-based;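 further: luciferase reporter driven by Pax8 target thyroperoxidase promoter measured by SteadyGlo luminescence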
Paired box protein Pax-8, sequence (Q06710 whole entry): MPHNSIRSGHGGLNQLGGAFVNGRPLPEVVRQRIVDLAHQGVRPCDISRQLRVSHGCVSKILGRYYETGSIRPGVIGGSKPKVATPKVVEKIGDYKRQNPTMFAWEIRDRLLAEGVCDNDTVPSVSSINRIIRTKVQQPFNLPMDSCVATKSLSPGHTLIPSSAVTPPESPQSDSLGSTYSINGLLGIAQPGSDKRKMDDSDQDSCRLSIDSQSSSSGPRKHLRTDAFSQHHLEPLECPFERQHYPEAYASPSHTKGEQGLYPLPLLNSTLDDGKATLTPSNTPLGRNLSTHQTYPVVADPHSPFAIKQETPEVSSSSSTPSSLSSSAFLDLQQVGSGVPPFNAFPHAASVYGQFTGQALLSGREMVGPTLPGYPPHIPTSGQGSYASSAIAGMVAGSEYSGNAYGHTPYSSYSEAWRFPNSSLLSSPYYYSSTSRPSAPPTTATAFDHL

[17] = A549 cell cytotoxicity, dose response, cytotoxicity control, plate reader, cherry-pick, antagonist series (AID 743412); assay type: functional, cell-based
[18] = blockers of bursicon-stimulated LGR2 cAMP reporter – cell-based, HEK293, CRE-luciferase reporter, cherry pick, set 2, dose response (AID 743343); assay type: functional;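 further: transfected cells were stimulated with diluted bursicon conditioned medium after compound addition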
[19] = toxicity toward HepG2 liver cells – cell-based, plate reader, cherry-pick, antagonist series, cytotoxicity control, dose response (AID 743416); assay type: functional

SMILES: CCN(CC)CCCNC1=C(Cl)C(=O)c2ccccc2C1=O
- IC50 [1]: 1.8 µM (active)
- EC50 [2]: 0.987 µM (active)
- AC50 [3]: 1.78 µM (active)
- EC50 [4]: 2.26 µM (active)
- IC50 [5]: 11.7 µM (active)
- IC50 [6]: 9.5 µM (not active)
- AC50 [7]: 4.69 µM (active)
- AC50 (A-375): 14.8 µM (active)
- AC50 (INS1): 2.46 µM (active)

SMILES: O=C(O)c1ccccc1N=Nc1c(O)[nH]c2ccc([N+](=O)[O-])cc12
- IC50 [8]: > 40 µM (not active)
- EC50 (Beta-galactosidase): > 40 µM (inactive)
- IC50 [9]: 10.1 µM (active)

SMILES: C(=N\Nc1nc2ccccc2s1)/c1ccccn1
- AC50 [10]: 3.72 µM (active)
- AC50 [11]: 0.229 µM (active)
- IC50 [12]: > 119 µM (inactive)
- EC50 [13]: < 0.16 µM (active)
- AC50 [14]: 9.34 µM (active)
- IC50 [15]: > 80 µM (inactive)
- CC50 (Vero): 2.61 µM (active)
- AC50 [16]: 0.836 µM (active)
- IC50 (Exodeoxyribonuclease V): > 119 µM (inactive)
- AC50 (Paired box protein Pax-8): 3.32 µM (active)
- AC50 [17]: 2.02 µM (active)
- AC50 [18]: 0.148 µM (active)
- AC50 [19]: 2.06 µM (active)
